Data taken from a melting point compilation (Tetko et al.; mined from patent text by program, amines drawn as free bases though some values may be those of a salt).

Row | Structure (SMILES) | melting point [°C]
1 | CCCCCCCOC(N)=O | 84
2 | O=S(=O)(/C=C/c1ccsc1)CS(=O)(=O)/C=C/c1ccsc1 | 150 to 152
3 | COc1ccc2c(c1)C(N=Cc1ccc(O)c(OC)c1)CCO2 (stereo not given) | 136 to 139
4 | Cc1ccc(C(=O)N(C)C)cc1-c1nc(N(C)CCCN(C)C)nc2c1CNC(=O)N2c1c(F)cccc1F | 114 to 118
5 | CCN(CC)c1c(OC)cccc1C(=O)O | 68 to 71
6 | CCOC(=O)c1cc(CC)sc1Nc1cc(F)c(F)cc1[N+](=O)[O-] | 105
7 | Cc1cc(COP(N)(=O)N(CCCl)CCCl)ccc1[N+](=O)[O-] (stereo not given) | 64 to 66
8 | CC(C)(C)c1cc(-c2nc(Cl)nc(Cl)n2)cc(C(C)(C)C)c1O | 178 to 179
9 | CCOC(=O)c1cnc2ccc(-c3ccc(Cl)cc3)cn12 | 130
10 | O=C(O)CCCCCc1nn(Cc2ccccc2)c2c1CCC2 | 94 to 95
11 | Cc1cccc2c(=O)[nH]c(CCCN(C)C)cc12 | 105 to 106
12 | CCCCOC(=O)CS(=O)(=O)CC=C1SC=CS1 | 99 to 100
13 | COc1ccc(OC)c2c1CC(O)(C(=O)O)CC21SCCS1 (stereo not given) | 178 to 180
14 | CC(C)Nc1nc2c(Br)c(Cl)c(Cl)cc2n1[C@H]1O[C@@H](CO)[C@H](O)[C@@H]1O | 221 to 222
15 | COC(=O)c1ccc2scc(Br)c2c1 | 93 to 94
16 | Nc1nc2c(s1)CCN(CC=Cc1ccc3ccccc3c1)CC2 | 164 to 165
17 | CN(C)CCN(c1ccc(N)cc1)S(C)(=O)=O | 147 to 148
18 | c1ccc2c(c1)CNC1CC2c2ccccc21 (stereo not given) | 115 to 117
19 | c1ccc2c(c1)OCCc1c-2n(CCN2CCCCC2)c2ccccc12 | 103
20 | CSc1nc(N)nc(Cl)c1-c1ccc(Cl)cc1Cl | 201 to 202
21 | CC1=CC(=O)N(c2cc(NS(=O)(=O)c3cccc4c(N(C)C)cccc34)cc(N3C(=O)C=C(C)C3=O)c2)C1=O | 230
22 | Cc1nccn1-c1cccc(C2=CC(=O)OC(C)(C)O2)c1 | 122
23 | c1ccc2[nH]c(CCC(CCCc3[nH]c4ccccc4c3CCN3CCCCC3)CCN3CCCCC3)cc2c1 (stereo not given) | 79 to 83
24 | CCc1oc2ccc([N+](=O)[O-])cc2c1C(=O)c1ccc(O)cc1 | 152
25 | O=C1c2ccccc2C(=O)N1Cc1nnc2n1-c1ccc(Cl)cc1C(c1ccccc1F)=CC2 | 235 to 237

Row | Structure (SMILES) | melting point [°C]
26 | Cc1ccc([N+](=O)[O-])c(=O)[nH]1 | 222 to 223
27 | O=C(O)CCc1cn(Cc2ccc(OCc3csc(-c4ccccc4)n3)cc2)cc1-c1ccccc1 | 111 to 112
28 | Cc1cccc2c1N(CC(=O)N1CC3CCC(CC3)C1)C(=O)C(NC(=O)Nc1cccc(C(=O)OC(C)(C)C)c1)N=C2c1ccccc1F (stereo not given) | 230 to 232
29 | CCCCc1nc(NC(=N)N)sc1-c1cccc([N+](=O)[O-])c1 | 140 to 142
30 | COC(=O)c1ccc([N+](=O)[O-])[nH]1 | 178 to 179
31 | CCOC(=O)c1c(O)c2ccc(F)cc2c(=O)n1CC(C)C | 104 to 105
32 | N#Cc1cccc(C2=Nc3ccc(-c4ccc(-c5ccccc5)cc4)cc3NC(=O)C2)c1 | 251 to 253
33 | CC(C)(C)OC(=O)[C@@H]1CS[C@H](c2c(F)cccc2Cl)N1C(=O)CNC(=O)Nc1cccc(C(=O)O)c1 | 148
34 | Cc1cccc(N2CCN(c3nnc(Cl)c(C)c3C)CC2)c1C | 194
35 | O=C(O)CCCCCCCCCCCCCCCCCCCO | 86
36 | CCNC(C)Cc1ccc(O)cn1 (stereo not given) | 75 to 79
37 | O=Cc1ccc(CCCCCCCC(=O)O)o1 | 70 to 72
38 | CC(C)(C)c1ccccc1N1CCN(C(=O)C2CCC(=O)N2)CC1 (stereo not given) | 290
39 | Cc1ccc(N2CCN(Cc3ccc4ccc(=O)oc4c3)CC2)cc1 | 154 to 155
40 | C[C@H](CS(C)(=O)=O)NC(=O)c1c[nH]c2ncc(-c3nn(C)c4cc(Cl)ccc34)nc12 | 287 to 290
41 | CC1(C)C(=O)Nc2ccc(-c3ccc(C#N)[nH]3)cc21 | 256 to 258
42 | O=C(NC(SC(=O)c1ccccc1)C(=O)NC(Cc1c[nH]c2ccccc12)C(=O)O)c1ccccc1 (stereo not given) | 188 to 191
43 | COc1c(-c2ccc3cc(NS(C)(=O)=O)ccc3c2)cc(-c2ccc[nH]c2=O)cc1C(C)(C)C | > 300
44 | OC(=S)CCc1cccc(Br)c1 | 90 to 91
45 | CC(C)(C)c1ccc(Sc2cccc(C=C3SC(=S)NC3=O)c2)cc1 | 188 to 190
46 | O=[N+]([O-])c1ccc2c(c1)C(N1CCCC1)C(O)CC2 (stereo not given) | 77
47 | CCOC(=O)c1c(S(=O)(=O)c2ccccc2)cc(C(F)(F)F)nc1C(F)(F)F | 48 to 50
48 | CSc1cc2cc(C)ccc2cc1C=Cc1cc2ccc(C)cc2cc1SC | 185 to 186
49 | [N-]=[N+]=Nc1ccc(S(=O)(=O)NCCCCCC(=O)O)cc1 | 126 to 127
50 | COc1ccc2c(c1)C(=O)c1c-2nc2ccccc2c1Cl | 216 to 218
